Experimental data from US8835377B2, “Oral delivery of peptide pharmaceutical compositions” (UGP Therapeutics, Inc., priority 2004, dated 2014).
Where two headings read alike, the source gives them in different places.

Assay: Pharmacokinetics after duodenal injection of unformulated or formulated Dmt-DALDA in anesthetized rats (plasma, HPLC-UV)
Type: in vivo
Conditions: for Tmax / Cmax / AUC: Unformulated; for Cmax / AUC: rat; for AUC: trapezoidal rule; for Dmt-DALDA plasma concentration: unformulated
Experimental: In the experiments represented in the subject Figure, six anesthetized rats (which were color-coded as: red, white, blue, orange, green and yellow) were given 0.7 mL Dmt-DALDA (1.6 mg/mL) with a syringe through a 27 gauge needle into the duodenum. This injection procedure was followed due to the technical difficulty inherent in preparing capsules which can be swallowed by small animals the size of a rat. The intraduodanal injection, therefore, mimics the release of the components of an enteric-coated capsule formulation which would pass through the esophagus and stomach and release its contents in the duodenum. Three of the rats (red, white and blue) were given Unformulated Dmt-DALDA in which there were no additional components (i.e., other than the Dmt-DALDA), while the other three rats (orange, green and yellow) were given Formulated Dmt-DALDA which included, in addition to the Dmt-DALDA, 0.5M citric acid and lauroyl carnitine (10 mg/ml). Samples of blood were taken from the carotid artery through an indwelling catheter before and 5, 15, 30, 60 and 120 minutes after the administration of the respective formulations (i.e., Formulated and Unformulated). The blood samples were centrifuged and the resulting plasma supernatants were stored frozen at −20° C. […] Peptide was detected with an ultraviolet (UV) detector set at a wavelength of 210 nm. […] Table I, moreover, provides the standard deviations for the data obtained regarding each of the test rats, which standard deviations are also indicated in FIG. 1.
Table II (below) summarizes the pharmacokinetic parameters in rats of orally administered unformulated and formulated Dmt-DALDA as those terms are defined above. Cmax refers to the maximum concentration of peptide detected in the rat plasma. The area under the curve (AUC) is a measure of the extent of peptide absorption and is calculated by the trapezoidal rule from a plot of peptide concentration as a function of time. Tmax indicates when the maximum concentration of the Dmt-DALDA in the blood serum was obtained.

SMILES: Cc1cc(O)cc(C)c1C[C@H](N)C(=O)N[C@H](CCCNC(=N)N)C(=O)N[C@@H](Cc1ccccc1)C(=O)N[C@@H](CCCCN)C(N)=O [unformulated]
- Tmax (Avg (n = 3)): 5.00 min
- Tmax (in vivo, 1.12 mg, Red rat, read-out: Tmax (converted)): 5 min
- Cmax (in vivo, 1.12 mg, Avg (n = 3)): 510 ng/mL
- AUC (in vivo, 1.12 mg, Avg (n = 3)): 64 ng·h/mL
- Cmax (in vivo, 1.12 mg, Red rat): 1540 ng/mL
- AUC (in vivo, 1.12 mg, Red rat): 192 ng·h/mL
- Dmt-DALDA detected in plasma (rats given unformulated Dmt-DALDA): virtually undetectable
- Dmt-DALDA plasma concentration (avg of rats, 0 min): 0.00 µg/mL
- Dmt-DALDA plasma concentration (avg of rats, 15 min): 0.00 µg/mL
- Dmt-DALDA plasma concentration (avg of rats, 30 min): 0.00 µg/mL
- Dmt-DALDA plasma concentration (avg of rats, 60 min): 0.00 µg/mL
- Dmt-DALDA plasma concentration (avg of rats, 120 min): 0.00 µg/mL
- Dmt-DALDA plasma concentration (blue rat, 0 min): 0.00 µg/mL
- Dmt-DALDA plasma concentration (blue rat, 5 min): 0.00 µg/mL
- Dmt-DALDA plasma concentration (blue rat, 15 min): 0.00 µg/mL
- Dmt-DALDA plasma concentration (blue rat, 30 min): 0.00 µg/mL
- Dmt-DALDA plasma concentration (blue rat, 60 min): 0.00 µg/mL
- Dmt-DALDA plasma concentration (blue rat, 120 min): 0.00 µg/mL
- Dmt-DALDA plasma concentration (red rat, 0 min): 0.00 µg/mL
- Dmt-DALDA plasma concentration (red rat, 15 min): 0.00 µg/mL
- Dmt-DALDA plasma concentration (red rat, 30 min): 0.00 µg/mL
- Dmt-DALDA plasma concentration (red rat, 60 min): 0.00 µg/mL
- Dmt-DALDA plasma concentration (red rat, 120 min): 0.00 µg/mL
- Dmt-DALDA plasma concentration (white rat, 0 min): 0.00 µg/mL
- Dmt-DALDA plasma concentration (white rat, 5 min): 0.00 µg/mL
- Dmt-DALDA plasma concentration (white rat, 15 min): 0.00 µg/mL
- Dmt-DALDA plasma concentration (white rat, 30 min): 0.00 µg/mL
- Dmt-DALDA plasma concentration (white rat, 60 min): 0.00 µg/mL
- Dmt-DALDA plasma concentration (white rat, 120 min): 0.00 µg/mL
